What was measured:
[1] = biological target: T1, ALDH1 (Homo sapiens, UniProt P00352); assay: ALDH1 HPLC-based activity assay (Example 2); assay type: biochemical; conditions: physiological concentrations of NAD+
T1 construct: Purification of native ALDH1, QR2 and QR1; RBC extract was prepared as described above and applied to PQ-Sepharose; tissue Valley Biomedical (blood); host or cells: human red blood cells
T1 sequence (P00352 1-501): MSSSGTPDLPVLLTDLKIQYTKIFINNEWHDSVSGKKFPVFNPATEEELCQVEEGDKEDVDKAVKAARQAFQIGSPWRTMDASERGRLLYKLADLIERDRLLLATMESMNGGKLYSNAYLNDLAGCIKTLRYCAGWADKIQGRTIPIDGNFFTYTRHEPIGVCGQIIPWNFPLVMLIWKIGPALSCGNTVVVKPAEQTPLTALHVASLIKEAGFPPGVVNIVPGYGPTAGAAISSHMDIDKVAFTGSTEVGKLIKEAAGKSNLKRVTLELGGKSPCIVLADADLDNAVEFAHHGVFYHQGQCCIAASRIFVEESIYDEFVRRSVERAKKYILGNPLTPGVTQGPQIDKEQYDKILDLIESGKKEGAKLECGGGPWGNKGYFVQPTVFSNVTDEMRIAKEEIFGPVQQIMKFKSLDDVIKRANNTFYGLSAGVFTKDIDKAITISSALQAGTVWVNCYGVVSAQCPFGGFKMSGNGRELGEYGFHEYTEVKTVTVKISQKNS
Method: Purification of native ALDH1, QR2 and QR1. RBC extract was prepared as described above and applied to PQ-Sepharose equilibrated in buffer A. ALDH1 and QR2 were obtained by eluting the column with 5 mM b-NAD^+ and NMeH respectively. QR1 was purified from rabbit liver as previously described (Lind et al, Methods Enzymol. 186:287-301 (1990)). All enzymes were sequenced to confirm their identify and were >90% pure as judged by SDS-PAGE and silver staining.
ALDH1, QR2 and QR1 activity assays. ALDH1 activity was determined using an HPLC-based assay because of the co-absorbance of CQ and NADH at 340 nm. Reaction products were separated with a gradient of acetonitrile in 10 mM triethylamine acetic acid. CQ and NADH peaks were identified by their signature spectra using an online photodiode array detector. QR2 activity was assayed in triplicate with recombinant QR2 (at 96 ng/mL) by measuring the absorbance at 365 nm in a buffer containing 50 mM Tris-HCl, pH 8.5, 50 μM NMeH, 5-30 μM menadione, and 0.1% Triton X-100. […] QR2 K1 values were calculated using KinetAsyst II by fitting the experimental data to the equations of Cleland (Methods Enzymol. 63:103-138 (1979)). […] QR1 IC50 values were calculated using GraphPad Prism.
The quinolines inhibit ALDH1 and QR2. […] Because of the co-absorbance of NADH and CQ at 340 nm, an HPLC based assay was developed to determine the effects of CQ on ALDH1 activity.

[2] = biological target: QR1 (Oryctolagus cuniculus, UniProt U3KNP2); assay: QR1 activity assay (Example 2); assay type: biochemical, rabbit; set-up: QR1 was purified from rabbit liver as previously described; from tissue; host or cells: rabbit liver
Method: Purification of native ALDH1, QR2 and QR1. RBC extract was prepared as described above and applied to PQ-Sepharose equilibrated in buffer A. ALDH1 and QR2 were obtained by eluting the column with 5 mM b-NAD^+ and NMeH respectively.
ALDH1, QR2 and QR1 activity assays. […] Reaction products were separated with a gradient of acetonitrile in 10 mM triethylamine acetic acid. […] QR1 IC50 values were calculated using GraphPad Prism.

[3] = biological target: T2, QR2 (Homo sapiens, UniProt P16083); assay: hQR2 activity assay, enzyme purified from human RBC (Example 1); assay type: biochemical; set-up: Pure hALDH was eluted with 5 mM NADH and pure hQR2 with 5 mM NMeN; tissue Valley Biomedical (blood); host or cells: human red blood cells; conditions: purified hQR2 from human RBC; menadione substrate; read-out: Kd(app)
T2 sequence (P16083 1-231): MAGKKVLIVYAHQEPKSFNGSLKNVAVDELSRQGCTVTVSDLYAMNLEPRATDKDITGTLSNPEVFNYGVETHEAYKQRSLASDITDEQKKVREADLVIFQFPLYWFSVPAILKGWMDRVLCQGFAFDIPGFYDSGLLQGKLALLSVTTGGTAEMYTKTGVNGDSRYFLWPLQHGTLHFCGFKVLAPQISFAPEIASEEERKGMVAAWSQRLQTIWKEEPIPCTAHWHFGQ
Method: ATP-affinity array chromatography. In whole mouse experiments, the animal (except for its tail, feet, skin and intestines) was frozen in liquid N2 and blended in buffer A containing 50 mM Hepes, pH 7.5, 50 mM NaCl, 10 mM MgCl2, 0.1% NONIDET- P40, 1 mM dithiothreitol, 1 μg/ml leupeptin, 100 μg/ml pefabloc and 10 μg/ml aprotinin. Mouse lysate was clarified by centrifugation for 1 hr at 100,000×g. For infected and non-infected RBC's˜1.5×10^9 cells were mixed with an equal volume of 2×buffer A, rocked for 30 min at 4° C., and clarified by centrifugation for 1 hr at 100,000×g. Supernatants were dialyzed overnight against 50 mM Hepes, pH 7.5, 50 mM NaCl, 10 mM MgCl2 and 1 mM dithiothreitol. […] Lysates were centrifuged twice at 125,000×g for 1 hr at 4° C. […] Pure hALDH was eluted with 5 mM NADH and pure hQR2 with 5 mM NMeN. The eluants were dialyzed overnight at 4° C. against 25 mM Tris pH 8.0 and 1 mM DTT. hALDHl was assayed as described in Table 2. Purified hQR2 was assayed at 22° C. in 100 μM N-methyldihydronicotinamide, 30 μM menadione, 0.1% Triton X-100, 50 mM Tris pH 8.5, 100 μM dicoumarol (unless stated otherwise).
For QR2 Kd apparent values determined using the expression [formula]
The Kd was determined as [formula]
Where Ao=rate in the absence of drug; Aapp=rate+drug; [M]=concentration of menadione.

Sequence of QR1 (U3KNP2 1-274): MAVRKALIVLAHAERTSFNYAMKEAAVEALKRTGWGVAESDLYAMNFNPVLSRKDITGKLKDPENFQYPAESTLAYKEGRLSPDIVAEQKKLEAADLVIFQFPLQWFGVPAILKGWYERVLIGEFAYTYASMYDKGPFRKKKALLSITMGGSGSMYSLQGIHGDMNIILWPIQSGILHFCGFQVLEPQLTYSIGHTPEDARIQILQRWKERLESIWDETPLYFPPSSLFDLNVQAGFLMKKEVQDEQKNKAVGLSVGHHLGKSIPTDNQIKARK

CCN(CC)CCCC(C)Nc1ccnc2cc(Cl)ccc12 (stereo not shown) [CQ, chloroquine]
IC50 [1]: 500 µM | IC50 [2]: > 1000 µM | effect on QR1 activity [2]: not affected | Kd [3]: 24 µM
